Source: US20250090510A1, “eIF4G1-eIF1 INHIBITORS AND USE THEREOF” (YEDA RESEARCH AND DEVELOPMENT CO. LTD., priority 2022, published 2025)

Key:
eIF1 = biological target: T1, eIF1 (Homo sapiens, UniProt P41567); test: Intrinsic fluorescence of His-eIF1; type: binding; conditions: 0-256 μM, 5 minutes
T1 construct: made in house; host or cells: E. coli BL21
Excerpt: FIGS. 1A-G: Identification and initial characterization of eIF1-eIF4G1 inhibitors using a high-throughput drug screen (HTS). (1A) A flowchart describing the steps of the recombinant eIF1-eIF4G1 split-RL HTS. (1B) Selection of drugs that inhibit leaky scanning. HEK293T cells were transfected with a short 5′UTR bearing GFP reporter gene described on the top, treated with the indicated HTS hits, and then analyzed by western blot with GFP antibody. US and DS denote upstream and downstream AUG initiation sites, respectively. (1C) A graph showing the change in the ratio of the upstream and downstream AUG following treatment with the indicated drugs. (1D) The chemical structure of the eIF1-eIF4G1 inhibitors, i14G1-10 and i14G1-12. (1E) His-tagged eIF4G1 and His-tagged eIF1 were expressed in BL21 bacteria and purified using nickel NTA beads. Purified His-tagged eIF4G1 and His-tagged eIF1 were incubated with the indicated doses of either i14G1-10 (0-256 μM) or i14G1-12 (0-256 μM) for 5 minutes, followed by fluorescence measurement. […] IC50 was calculated using Graphpad prism 9. […]
Intrinsic fluorescence of His-eIF1 and His-eIF4G1. […] After 5 minutes, fluorescence (280/350) was measured on Cytation 5 multi-mode reader (Biotek). The fluorescence intensity values corresponding to respective concentration in both i14G1-10 and i14G1-12 treatments were plotted and IC50 was calculated using GraphPad Prism 9.0. […]

[1] = biological target: T2, eIF4G1 binding to eIF4E-cap complex (Homo sapiens, UniProt Q04637); test: Cap-binding assay on m7GTP cap-analog agarose beads; type: cell-based; conditions: HEK293T; i14G1-10 20 μM, i14G1-12 10 μM; 4 hours
T2 construct: endogenous in cells; host or cells: HEK293T
Protocol: FIGS. 2A-C: The effect of i14G1-10 and i14G1-12 on eIF1-eIF4G1 and eIF4E-eIF4G1 complexes. (2A-B) HA-eIF1 and HA-eIF4E were each transfected into HEK293T cells and 48 h after transfection cells were treated with DMSO or i14G1-10 (2A) or i14G1-12 (2B) for 4 h, followed by immunoprecipitation of HA-eIF1 or HA-eIF4E using anti-HA-agarose beads. Western blot was run to check co-immunoprecipitation of endogenous eIF4G1 with HA-eIF1 or HA-eIF4E. The graphs represent the co-immunoprecipitation of eIF4G1 with HA-eIF1 (right) or HA-eIF4E (left). Co—IP data shown as mean±SEM of 4-7 independent experiments. The asterisks denote statistically significant difference compared to DMSO, according to Student's t-tests (one-tailed, paired). *p<0.05. (2C) HEK293T cells were treated with DMSO, i14G1-10, or i14G1-12 for 4 h, followed by cell lysis. Respective cell lysates were incubated with cap analog (γ-Aminohexyl-m7GTP) beads for 2 h to precipitate bound eIF4E. Western blot was performed to check co-precipitation of eIF4G1 along with eIF4E on the cap-analog beads. The graph represents the binding fraction of eIF4G1 and eIF4E to the cap-analog beads (mean±SEM) with DMSO (black), i14G1-10 (blue), and i14G1-12 (red), n=6. The asterisks denote statistically significant difference compared to DMSO, according to Student's t-tests (one-tailed, paired). *p<0.05; **p<0.01.
Cap-binding Assay. […]

T2 sequence (Q04637 whole entry): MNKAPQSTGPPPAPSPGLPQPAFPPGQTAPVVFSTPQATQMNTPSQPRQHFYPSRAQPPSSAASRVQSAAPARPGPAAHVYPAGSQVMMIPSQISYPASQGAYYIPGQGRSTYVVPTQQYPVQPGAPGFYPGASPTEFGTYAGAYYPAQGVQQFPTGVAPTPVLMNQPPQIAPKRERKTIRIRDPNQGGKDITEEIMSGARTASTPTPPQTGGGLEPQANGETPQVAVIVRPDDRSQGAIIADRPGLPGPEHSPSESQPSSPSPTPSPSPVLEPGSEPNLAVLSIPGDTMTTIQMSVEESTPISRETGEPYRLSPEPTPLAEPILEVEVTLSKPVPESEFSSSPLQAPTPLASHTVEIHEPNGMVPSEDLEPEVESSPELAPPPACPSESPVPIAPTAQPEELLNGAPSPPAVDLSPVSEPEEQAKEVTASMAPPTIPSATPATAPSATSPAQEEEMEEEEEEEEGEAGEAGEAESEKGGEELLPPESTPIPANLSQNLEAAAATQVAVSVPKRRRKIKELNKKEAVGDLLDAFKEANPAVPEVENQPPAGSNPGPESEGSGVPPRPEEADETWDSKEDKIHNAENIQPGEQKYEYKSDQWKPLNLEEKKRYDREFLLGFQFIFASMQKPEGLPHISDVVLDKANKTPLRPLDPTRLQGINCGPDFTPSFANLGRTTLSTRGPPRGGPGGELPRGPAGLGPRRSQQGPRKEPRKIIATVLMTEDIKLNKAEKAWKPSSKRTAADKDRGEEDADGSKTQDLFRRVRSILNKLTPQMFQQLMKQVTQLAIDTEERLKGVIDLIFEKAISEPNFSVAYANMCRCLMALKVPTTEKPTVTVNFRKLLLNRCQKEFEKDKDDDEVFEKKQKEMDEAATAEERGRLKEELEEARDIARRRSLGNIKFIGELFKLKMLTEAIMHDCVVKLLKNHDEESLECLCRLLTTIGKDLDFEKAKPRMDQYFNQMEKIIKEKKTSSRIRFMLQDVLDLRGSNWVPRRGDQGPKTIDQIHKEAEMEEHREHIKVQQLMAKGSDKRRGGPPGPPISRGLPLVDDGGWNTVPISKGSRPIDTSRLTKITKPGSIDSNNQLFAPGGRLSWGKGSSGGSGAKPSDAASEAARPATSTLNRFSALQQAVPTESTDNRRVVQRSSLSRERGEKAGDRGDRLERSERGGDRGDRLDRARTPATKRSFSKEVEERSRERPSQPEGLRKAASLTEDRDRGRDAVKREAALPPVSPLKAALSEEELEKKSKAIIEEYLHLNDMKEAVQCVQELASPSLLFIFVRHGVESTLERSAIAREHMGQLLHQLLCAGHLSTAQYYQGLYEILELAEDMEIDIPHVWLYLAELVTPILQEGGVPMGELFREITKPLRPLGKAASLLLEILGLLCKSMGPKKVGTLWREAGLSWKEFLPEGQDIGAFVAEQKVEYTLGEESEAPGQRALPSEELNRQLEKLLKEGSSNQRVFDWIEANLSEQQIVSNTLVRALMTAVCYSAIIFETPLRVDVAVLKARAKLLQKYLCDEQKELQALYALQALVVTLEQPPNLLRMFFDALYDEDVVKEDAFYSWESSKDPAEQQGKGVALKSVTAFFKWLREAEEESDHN
T2 sequence (P06730 2-217 partner limits assumed): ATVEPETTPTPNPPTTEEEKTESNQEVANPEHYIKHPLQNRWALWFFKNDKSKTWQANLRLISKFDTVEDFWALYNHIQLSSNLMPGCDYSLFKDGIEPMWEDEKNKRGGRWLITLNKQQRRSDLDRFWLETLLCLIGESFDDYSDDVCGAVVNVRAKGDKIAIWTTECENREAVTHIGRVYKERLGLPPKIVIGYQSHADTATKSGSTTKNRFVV
T1 sequence (P41567 whole entry): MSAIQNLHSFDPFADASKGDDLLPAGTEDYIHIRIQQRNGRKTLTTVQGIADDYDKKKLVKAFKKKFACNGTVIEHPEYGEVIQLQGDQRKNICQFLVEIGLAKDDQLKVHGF

| IC50 (eIF1; excitation 274 nm, emission 304 nm, read-out: IC-50, decrease of eIF1 intrinsic fluorescence) | Compound | intrinsic fluorescence of eIF1 (eIF1) | enhancement of eIF4G1 binding to eIF4E-cap complex [1] |
| --- | --- | --- | --- |
| – | O=C(/C=C/Sc1ccc(C(F)(F)F)cn1)c1ccccc1 [i14G1-10] | almost unchanged | 1.8 folds |
| 54 µM | Cn1ccnc1S/C(=C/C=C(C#N)C#N)c1ccc(Cl)cc1 [i14G1-12] | – | no significant effect |
